Assay results as given in patent US20250177555A1 (priority 2022, published 2025).

What was measured:
[1] = system: CNV-G gectosome cell entry; assay type: cell-based, human; conditions: read-out: IC50, CNV-G gectosome inhibition
[2] = system: CNV-G pseudotyped lentiviral infection; assay type: cell-based
[3] = system: CNV-G gectosome uptake, 293ColorSwitch cells; assay type: cell-based
[4] = system: VSV-G gectosome uptake, 293ColorSwitch cells; assay type: cell-based; conditions: Cre cargo
[5] = biological target: BlaM-Vpr-GFP1-10; test: cell-based or functional assay

## C/C1=C/C(=O)O[C@@H]2C[C@@H](CC[C@H](C)/C=C\CC1)O[C@@](O)([C@@H]1CSC(=O)N1)C2 [Latrunculin B]
[1]
  IC50: 1.96 µM
[2]
  effect on CNV-G pseudotyped lentiviral infection: effect of Latrunculin B on CNV-G

## CCCCCCCCCCCCCCCCOP(=O)([O-])OCC[N+](C)(C)C [Milterfosine]
[3]
  inhibition of CNV-G gectosome uptake: specifically inhibit
[4]
  inhibition of VSV-G gectosome uptake: NOT VSV-G gectosome uptake

## COc1ccc2c(c1)CC[C@@H]1[C@@H]2CC[C@]2(C)[C@@H](NCCCCCCN3C(=O)C=CC3=O)CC[C@@H]12 [U-73122]
[1]
  IC50: 3.03 µM

## CNV-G-EGFP (from UniProt P13180 23-530)
[5]
  efficiency of cargo transfer against the CNV-G-GFP11 and BlaM-GFP1-10 pair: 100 fold less
